Laboratory results taken from patent publication US20080090788A1, “Chemical Compounds” (priority 2005, published 2008).

Tests used:
NF-kB = NF-kB luciferase reporter activity in LPS-stimulated U937-kBluc cells; type: cell-based, human; conditions: for average luciferase activity, % of the activity in DMSO treated cells: 2 mM, ±SD; for IC50: Homo sapiens, U937-kBluc cells, LPS 0.3 μg/ml, 6 hours, mean of duplicate determinations ±SD, read-out: IC50 for inhibition of LPS-induced NF-kB activity
Protocol: U937-kBluc cells were cultured in a 96 well plate (2×10^4 cells in 100 μl in each well) and stimulated with 0.3 μg/ml LPS (lipopolysaccaride; Sigma Aldrich). After 6 hours, cells were collected and luciferase activity determined using the luclite reagent (Perkin Elmer UK, Beaconsfield, UK) and a Packard TopCount (Perkin Elmer), as described by the manufacturer. To determine the effect of SFZ and analogues, various concentrations of each compound or an equivalent amount of DMSO as a solvent control were added 1 hour prior to addition of LPS. Each determination was made in triplicate. A cell line containing an NF-kB reporter construct was used to determine the effects of SFZ analogues on NF-kB activity. Cells were treated with LPS to induce NF-kB activity in the presence or absence of each compound, or DMSO as a solvent control, and luciferase activity analysed as a measure of NF-kB dependent transcription (FIG. 1). […] U937-kBluc cells were treated with LPS to activate NF-kB in the presence of increasing concentrations of SFZ, derivatives (3a-f), or DMSO as a solvent control. For each concentration of compound, the percentage inhibition of luciferase activity relative to cells treated with an equivalent amount of DMSO was calculated. (A) Representative dose response experiment (♦, 3a; ▪, SFZ). Each data point is the mean of triplicate samples (±SEM). (B) Detailed dose response assays were performed for compounds which gave >50% inhibition at 2 mM. The mean IC50 value (±SD) for inhibition of LPS-induced NF-kB activity is derived from 2 independent experiments, each performed in triplicate.

ARH77 cells = type: cell-based; conditions: human, 4 days, 2 mM
Protocol: To determine the growth inhibitory effects of compounds 2a, SPY, 2c, 2d, ARH77 cells (2×10^4 cells in 100 μl in each well of a 96 well plate) were incubated with each compound or an equivalent amount of DMSO. Four days later, cell growth was determined using the Aqueous One Solution Cell Proliferation Assay (MTS) (Promega) according to the manufacturer's instructions. Each determination was made in triplicate. Relative cell growth was determined by subtracting the absorbance of wells containing medium and lacking cells, and dividing by absorbance values derived from cells treated with an equivalent volume of DMSO.
Reduction of SFZ in the gut to give SPY is thought to be responsible for much of the toxicity associated with therapy. The putative reduction products of the novel SFZ derivatives were associated with increased or decreased toxicity was investigated. ARH77 cells were treated for 4 days with compounds 2a (i.e., putative reduction product of 3a and 3b), 2c (putative reduction product of 3d), and 2d (putative reduction product of 3e and 3f), and SPY (reduction product of SFZ and 3c). Cell growth was determined using an MTS assay. The percent growth inhibition at 2 mM (FIG. 6) was measured. […] Cytotoxicity of 2a and 2c was slightly less than SPY with 27±8% and 24±3% growth inhibition, respectively. 2d was essentially non-toxic in this assay with −6±16% growth inhibition. The ability of compounds 2a, 2c and 2d to interfere with NF-kB activity in LPS treated U937-kBluc cells was also tested.
ARH77 cells were incubated with 2 mM of 2a, 2c, 2d, SPY or DMSO as a solvent control. After 4 days, cell growth was determined using an MTS assay. Percentage growth inhibition for each compound relative to DMSO treated cells was determined. Mean growth inhibition is shown (±SD). Data are derived from two separate experiments, each performed in triplicate.

SMILES | average luciferase activity, % of the activity in DMSO treated cells (NF-kB) | IC50 (NF-kB) | percent growth inhibition (ARH77 cells)
Nc1ccc(S(=O)(=O)Nc2ccccn2)cc1 [SPY, sulfapyridine, reference compound] | 151±71% | > 2 mM | –
CNS(=O)(=O)c1ccc(N)cc1 [Compound 2c] | – | – | 24±3%
Nc1ccc(O)c(C(=O)O)c1 [Compound 5-ASA, 5-amino salicylic acid, reference compound] | 121±32% | > 2 mM | –
Nc1ccc(S(=O)(=O)NCc2ccc(C(F)(F)F)cc2)cc1 [Compound 2d] | – | – | −6±16%
COc1ccc(CNS(=O)(=O)c2ccc(N)cc2)cc1 [Compound 2a, N-(p-methoxybenzyl)-4-aminobenzenesulfonamide] | – | – | 27±8%
Cc1cc(/N=N/c2ccc(S(=O)(=O)Nc3ccccn3)cc2)cc(C(=O)O)c1O [Compound 3c, 2-hydroxy-3-methyl-5-[4-(pyridin-2-ylsulfamoyl)-phenylazo]benzoic acid] | – | 1.1 ± 0.04 mM | –
CNS(=O)(=O)c1ccc(/N=N/c2ccc(O)c(C(=O)O)c2)cc1 [Compound 3d, 2-hydroxy-5-(4-methylsulfamoyl-phenylazo)-benzoic acid] | – | 1.24 ± 0.106 mM | –
COc1ccc(CNS(=O)(=O)c2ccc(/N=N/c3ccc(O)cc3)cc2)cc1 [Compound 3b] | 87.5±3.3% | > 2 mM | –
